Test results: patent US20220305012A1, “L[…] TREATING SLEEP ISSUES” (EISAI R&D MANAGEMENT CO., LTD., priority 2019, published 2022)

Experiments:
Format in all cases: in vivo, human
[1] = tested on: Subjects Having Insomnia Disorder; assay: Example 2: return to sleep latency
[2] = tested on: Subjects Having Insomnia Disorder; assay: Example 2: wake after sleep onset in the second half of the night (WASO2H), polysomnography
Method: (§1) In some embodiments, a sleep parameter is determined objectively using polysomnography. Polysomnography is the monitoring of multiple electrophysiological parameters during sleep and generally includes measurement of EEG activity, electro-oculographic activity and electromyographic activity, as well as other measurements.
WASO2H: wake after sleep onset in the second half of the night: minutes of wake during the interval from 240 minutes after lights off until lights on.
(§2) The treatment period lasted for 31 days. Subjects were randomized in a double-blind manner and received placebo, a tablet containing 5 mg of lemborexant, a tablet containing 10 mg of lemborexant, or a tablet containing 6.25 mg of zolpidem ER.
(§3) Within 5 minutes of the subject's mean habitual bedtime, study drug was administered and an overnight polysomnogram recording was initiated. At completion of the recording the following morning (Day 2), postural stability and cognitive performance were assessed. On the Day 2 evening, subjects returned to the clinic and a blood sample was collected before administering study drug, and then study drug was administered within 5 minutes of the subject's mean habitual bedtime. Again, a polysomnogram recording was initiated. The next morning (Day 3), postural stability and cognitive performance were assessed. A blood sample was also collected.
(§4) On Day 29, subjects returned to the clinic. Study drug was administered within 5 minutes of the subject's mean habitual bedtime and a polysomnogram recording was conducted. On the following morning (Day 30), postural stability and cognitive performance were assessed. After 1.5 hours of waketime, subjects rated their morning sleepiness level.
(§5) On the evening of Day 30, subjects returned to the clinic. A pre-dose blood sample was collected and study drug was again administered within 5 minutes of the subject's mean habitual bedtime. A polysomnogram recording was initiated. The following morning (Day 31), postural stability and cognitive performance were assessed and a blood sample was obtained. The ISI, FSS, EQ-5D-3L and PGI-Insomnia were administered. Blood and urine samples were collected for routine safety assessment. An electrocardiogram was performed, and vital signs and weight were assessed. The eC-SSRS was then administered to the subject. At 1.5 hours after waketime, subjects rated their morning sleepiness level.
Another key secondary endpoint was to determine the change from baseline for mean wake after sleep onset in the second half of the night on Days 29 and 30 after administration of 5 mg or 10 mg of lemborexant compared to administration of 6.25 mg of zolpidem ER.

[3] = tested on: Subjects Having Insomnia Disorder; assay: Example 2: postural stability, body sway upon awakening in morning
From the text: Subjects were provided with a sleep diary and trained on how to record entries. After subjects completed the sleep diary on 7 consecutive mornings, and provided that the subject was still eligible to participate in the study, they attended a second clinical meeting between 10 and 17 days before the randomization phase. The subject was then fitted with a polysomnogram and trained in how to complete the postural stability assessment and cognitive performance assessment battery. Subjects then underwent an 8-hour polysomnogram recording. Within 5 minutes of waking, the postural stability assessment and cognitive assessment battery were conducted on the subject.
as §3, §4, §5
An exemplary additional secondary endpoint is the change from baseline on the postural stability test of mean units of body sway on Days 2 and 3 after administration of 5 mg or 10 mg of lemborexant compared to zolpidem.

[4] = tested on: Subjects Having Insomnia Disorder; assay: Example 2: wake after sleep onset (WASO), polysomnography
Method: as §1
WASO—wake after sleep onset: minutes of wake from the onset of persistent sleep until lights on.
as §2, §3, §4, §5
Another key secondary endpoint was to determine the change from baseline for mean wake after sleep onset on Days 29 and 30 after administration of 5 mg or 10 mg of lemborexant, compared to placebo.

[5] = tested on: Subjects Having Insomnia Disorder; assay: Example 2: subjective total sleep time (sTST), sleep diary
From the text: As used herein, the term “subjective total sleep time”, abbreviated as “sTST”, means the derived minutes of sleep from sleep onset until the time the subject stopped trying to sleep for the night. In some embodiments, sTST is derived from data entered in a subject's Sleep Diary.
In some embodiments, sleep diaries were used to assess sleep parameters reported by subjects (i.e., subjective assessments) including subjective sleep onset latency (sSOL), subjective sleep efficiency (sSE), subjective WASO (sWASO), and subjective total sleep time (sTST). Subjects were instructed to complete the Sleep Diary developed based on the consensus Sleep Diary as described in Carney et al., “The consensus sleep diary: standardizing prospective sleep self-monitoring,” Sleep 2012; 35(2):287-302. In some embodiments, the Sleep Diary was used to assess the subject's global perception of quality of sleep on the previous night with the following question: “How would you rate the quality of your sleep last night?” Subjects rated the quality of their sleep on a scale from 1 to 9, with 1 being extremely poor and 9 being extremely good. In some embodiments, the Sleep Diary was used to assess subjective ratings of morning sleepiness with the following question: “How alert/sleepy do you feel this morning?” Subjects rated their sleepiness/alertness level on a Likert scale from 1 to 9, with 1 being extremely sleepy and 9 being extremely alert.
sTST—subjective total sleep time: derived minutes of sleep from sleep onset until the time the subject stopped trying to sleep for the night.
as §2
Once home, the subject ingested study drug each night prior to bedtime and completed their sleep diary within 1 hour of waketime.

[6] = First 7 Nights of Treatment, Lemborexant 5 mg
[7] = First 7 Nights of Treatment, Lemborexant 10 mg
[8] = Last 7 Nights of Treatment, Lemborexant 5 mg
[9] = Last 7 Nights of Treatment, Lemborexant 10 mg

Structure (SMILES): Cc1ncc(OC[C@@]2(c3cccc(F)c3)C[C@H]2C(=O)Nc2ccc(F)cn2)c(C)n1 [Lemborexant, (1R,2S)-2-(((2,4-dimethylpyrimidin-5-yl)oxy)methyl)-2-(3-fluorophenyl)-N-(5-fluoropyridin-2-yl)cyclopropanecarboxamide]
- Return to Sleep Latency, LSM - Difference vs. Placebo ([1]; Lemborexant 5 mg): -22.5 min
- Return to Sleep Latency, Mean (SD) change from baseline ([1]; Lemborexant 5 mg): -22.8 min
- Return to Sleep Latency, Postdose ([1]; Lemborexant 5 mg): 18.1 min
- Return to Sleep Latency, LSM - Difference vs. Placebo ([1]; Lemborexant 10 mg): -28.7 min
- Return to Sleep Latency, Mean (SD) change from baseline ([1]; Lemborexant 10 mg): -28.7 min
- Return to Sleep Latency, Postdose ([1]; Lemborexant 10 mg): 12.1 min
- return to sleep latency ([1]; both doses, vs placebo and zolpidem (Table 28)): greater reduction in return to sleep latency than treatment with placebo and zolpidem
- Wake After Sleep Onset in the Second Half of the Night, Change from Study Baseline, Mean (SD) ([2]; Days 1/2, Lemborexant 5 mg): −30.28 (32.056)
- Wake After Sleep Onset in the Second Half of the Night, Change from Study Baseline, Median ([2]; Days 1/2, Lemborexant 5 mg): −27.63
- Wake After Sleep Onset in the Second Half of the Night, Mean (SD) ([2]; Days 1/2, Lemborexant 5 mg): 46.32 (25.600)
- Wake After Sleep Onset in the Second Half of the Night, Median ([2]; Days 1/2, Lemborexant 5 mg): 40.88
- Wake After Sleep Onset in the Second Half of the Night, Change from Study Baseline, Mean (SD) ([2]; Days 1/2, Lemborexant 10 mg): −37.10 (30.815)
- Wake After Sleep Onset in the Second Half of the Night, Change from Study Baseline, Median ([2]; Days 1/2, Lemborexant 10 mg): −32.00
- Wake After Sleep Onset in the Second Half of the Night, Mean (SD) ([2]; Days 1/2, Lemborexant 10 mg): 39.78 (23.709)
- Wake After Sleep Onset in the Second Half of the Night, Median ([2]; Days 1/2, Lemborexant 10 mg): 34.00
- Wake After Sleep Onset in the Second Half of the Night, Change from Study Baseline, LSM treatment difference: Lemborexant-Zolpidem ([2]; Days 29/30, Lemborexant 5 mg): −6.65 (2.298)
- Wake After Sleep Onset in the Second Half of the Night, Change from Study Baseline, Mean (SD) ([2]; Days 29/30, Lemborexant 5 mg): −27.19 (33.047)
- Wake After Sleep Onset in the Second Half of the Night, Change from Study Baseline, Median ([2]; Days 29/30, Lemborexant 5 mg): −25.63
- Wake After Sleep Onset in the Second Half of the Night, Mean (SD) ([2]; Days 29/30, Lemborexant 5 mg): 49.11 (28.179)
- Wake After Sleep Onset in the Second Half of the Night, Median ([2]; Days 29/30, Lemborexant 5 mg): 42.13
- Wake After Sleep Onset in the Second Half of the Night, Change from Study Baseline, LSM treatment difference: Lemborexant-Zolpidem ([2]; Days 29/30, Lemborexant 10 mg): −8.00 (2.309)
- Wake After Sleep Onset in the Second Half of the Night, Change from Study Baseline, Median ([2]; Days 29/30, Lemborexant 10 mg): −27.25
- Wake After Sleep Onset in the Second Half of the Night, Mean (SD) ([2]; Days 29/30, Lemborexant 10 mg): 48.15 (27.844)
- Wake After Sleep Onset in the Second Half of the Night, Median ([2]; Days 29/30, Lemborexant 10 mg): 41.75
- mean wake after sleep onset in the second half of the night ([2]; all lemborexant treatment groups, relative to baseline, placebo and zolpidem treatment groups (Table 16)): reduced
- Body Sway Upon Awakening in Morning, Change from Study Baseline, Mean (SD) ([3]; Days 2/3, Lemborexant 5 mg): −0.82 ⅓ degree angle of arc
- Body Sway Upon Awakening in Morning, Change from Study Baseline, Median ([3]; Days 2/3, Lemborexant 5 mg): −0.50 ⅓ degree angle of arc
- Body Sway Upon Awakening in Morning, Mean (SD) ([3]; Days 2/3, Lemborexant 5 mg): 25.73 ⅓ degree angle of arc
- Body Sway Upon Awakening in Morning, Median ([3]; Days 2/3, Lemborexant 5 mg): 21.00 ⅓ degree angle of arc
- Body Sway Upon Awakening in Morning, Change from Study Baseline, Mean (SD) ([3]; Days 2/3, Lemborexant 10 mg): 0.56 ⅓ degree angle of arc
- Body Sway Upon Awakening in Morning, Change from Study Baseline, Median ([3]; Days 2/3, Lemborexant 10 mg): 0.50 ⅓ degree angle of arc
- Body Sway Upon Awakening in Morning, Mean (SD) ([3]; Days 2/3, Lemborexant 10 mg): 24.36 ⅓ degree angle of arc
- Body Sway Upon Awakening in Morning, Median ([3]; Days 2/3, Lemborexant 10 mg): 20.00 ⅓ degree angle of arc
- Body Sway Upon Awakening in Morning, Change from Baseline, Mean (SD) ([3]; Days 30/31, Lemborexant 5 mg): −0.85 ⅓ degree angle of arc
- Body Sway Upon Awakening in Morning, Change from Baseline, Median ([3]; Days 30/31, Lemborexant 5 mg): −0.50 ⅓ degree angle of arc
- Body Sway Upon Awakening in Morning, Mean (SD) ([3]; Days 30/31, Lemborexant 5 mg): 25.10 ⅓ degree angle of arc
- Body Sway Upon Awakening in Morning, Median ([3]; Days 30/31, Lemborexant 5 mg): 20.50 ⅓ degree angle of arc
- Body Sway Upon Awakening in Morning, Change from Baseline, Mean (SD) ([3]; Days 30/31, Lemborexant 10 mg): 0.48 ⅓ degree angle of arc
- Body Sway Upon Awakening in Morning, Change from Baseline, Median ([3]; Days 30/31, Lemborexant 10 mg): 0.50 ⅓ degree angle of arc
- Body Sway Upon Awakening in Morning, Mean (SD) ([3]; Days 30/31, Lemborexant 10 mg): 22.76 ⅓ degree angle of arc
- Body Sway Upon Awakening in Morning, Median ([3]; Days 30/31, Lemborexant 10 mg): 18.00 ⅓ degree angle of arc
- effects on postural stability compared to placebo ([3]; Table 24): no significant effects on postural stability compared to placebo
- body sway ([3]; all lemborexant treatment groups, relative to baseline, placebo and zolpidem treatment groups (Table 24)): reduced
- Wake After Sleep Onset, Change from Study Baseline, Mean (SD) ([4]; Days 1/2, Lemborexant 5 mg): −49.96 (39.578)
- Wake After Sleep Onset, Change from Study Baseline, Median ([4]; Days 1/2, Lemborexant 5 mg): −46.75
- Wake After Sleep Onset, Mean (SD) ([4]; Days 1/2, Lemborexant 5 mg): 63.48 (31.484)
- Wake After Sleep Onset, Median ([4]; Days 1/2, Lemborexant 5 mg): 58.38
- Wake After Sleep Onset, Change from Study Baseline, Mean (SD) ([4]; Days 1/2, Lemborexant 10 mg): −59.59
- Wake After Sleep Onset, Change from Study Baseline, Median ([4]; Days 1/2, Lemborexant 10 mg): −54.50
- Wake After Sleep Onset, Mean (SD) ([4]; Days 1/2, Lemborexant 10 mg): 55.23
- Wake After Sleep Onset, Median ([4]; Days 1/2, Lemborexant 10 mg): 48.75
- Wake After Sleep Onset, Change from Study Baseline, LSM treatment difference: Lemborexant-Zolpidem ([4]; Days 29/30, Lemborexant 5 mg): −7.72 (2.876)
- Wake After Sleep Onset, Change from Study Baseline, Mean (SD) ([4]; Days 29/30, Lemborexant 5 mg): −43.89 (39.264)
- Wake After Sleep Onset, Change from Study Baseline, Median ([4]; Days 29/30, Lemborexant 5 mg): −39.50
- Wake After Sleep Onset, Mean (SD) ([4]; Days 29/30, Lemborexant 5 mg): 69.10 (34.533)
- Wake After Sleep Onset, Median ([4]; Days 29/30, Lemborexant 5 mg): 62.63
- Wake After Sleep Onset, Change from Study Baseline, LSM treatment difference: Lemborexant-Zolpidem ([4]; Days 29/30, Lemborexant 10 mg): −9.10
- Wake After Sleep Onset, Change from Study Baseline, Mean (SD) ([4]; Days 29/30, Lemborexant 10 mg): −46.43
- Wake After Sleep Onset, Change from Study Baseline, Median ([4]; Days 29/30, Lemborexant 10 mg): −46.50
- Wake After Sleep Onset, Mean (SD) ([4]; Days 29/30, Lemborexant 10 mg): 68.60
- Wake After Sleep Onset, Median ([4]; Days 29/30, Lemborexant 10 mg): 62.50
- mean wake after sleep onset ([4]; all lemborexant treatment groups, relative to baseline, placebo and zolpidem treatment groups (Table 15)): reduced
- mean subjective total sleep time ([5]; 10 mg, relative to baseline, placebo and zolpidem treatment groups (Table 21)): increased
- Subjective Total Sleep Time, Change from Study Baseline, Mean (SD) [5, 6]: 50.30 (60.065)
- Subjective Total Sleep Time, Mean (SD) [5, 6]: 322.66 (89.706)
- Subjective Total Sleep Time, Model-adjusted change from baseline [5, 6]: 51.14
- Subjective Total Sleep Time, Change from Study Baseline, Mean (SD) [5, 7]: 67.80 (71.134)
- Subjective Total Sleep Time, Mean (SD) [5, 7]: 332.92 (91.538)
- Subjective Total Sleep Time, Model-adjusted change from baseline [5, 7]: 66.59
- Subjective Total Sleep Time, Change from Study Baseline, Mean (SD) [5, 8]: 62.41 (68.555)
- Subjective Total Sleep Time, Mean (SD) [5, 8]: 334.22 (94.339)
- Subjective Total Sleep Time, Model-adjusted change from baseline [5, 8]: 64.22
- Subjective Total Sleep Time, Change from Study Baseline, Mean (SD) [5, 9]: 79.95 (81.211)
- Subjective Total Sleep Time, Mean (SD) [5, 9]: 343.68 (95.785)
- Subjective Total Sleep Time, Model-adjusted change from baseline [5, 9]: 78.47
